Patent US20210147455A1 (SHAANXI SYNTHETIC PHARMACEUTICAL CO., LTD., priority 2018, published 2021)

How the values were obtained:
[1] = Hygroscopicity study (Chinese Pharmacopoeia 2015, 9103); assay type: physicochemical; conditions: for Hygroscopic weight gain: 25° C.±1° C., saturated ammonium chloride solution, 24 hours; for Conclusion (hygroscopicity): after 24 hours
Method: Test method: • 1. A dried glass weighing bottle with stopper (having an outer diameter of 50 mm and a height of 15 mm) was placed in a thermostatic drier (a saturated ammonium chloride solution was placed on the lower part of the thermostatic drier) at an appropriate temperature of 25° C.±1° C. on the day earlier before the test, and the weight (m1) of weighing bottle was precisely weighed. • 2. An appropriate amount of test sample was taken and spread in the weighing bottle, and the thickness of the test sample was controlled to about 1 mm, and the weight (m2) was precisely weighed. • 3. The weighing bottle was opened and was placed, together with the bottle cap, under the above mentioned constant temperature and humidity condition for 24 hours. • 4. The weighing bottle was capped and precisely weighed to obtain the weight (m3).
Description of hygroscopicity characterization and delimitation of hygroscopicity weight gain: Deliquescence: enough moisture is absorbed to form a liquid. […] Slightly hygroscopic: hygroscopic weight gain is less than 2% but not less than 0.2%. Not or hardly hygroscopic: hygroscopic weight gain is less than 0.2%.

[2] = Stability experiments under 40° C.±2° C. and 75% R.H±5% R.H (accelerated test); assay type: physicochemical; conditions: 40° C./75% R.H
[3] = Stability experiments under 25° C.±2° C. and 65% R.H±5% R.H; conditions: 25° C./65% R.H
Text: • 1. […] The results are shown in detail in the following table.

| Compound | Hygroscopic weight gain [1] [%] | Content ([2]; month 0) [%] | Description ([2]; month 0) | Related substance ([2]; month 0) [%] | Content ([2]; month 1) [%] | Description ([2]; month 1) | Related substance ([2]; month 1) [%] | Content ([2]; month 2) | Description ([2]; month 2) | Related substance ([2]; month 2) [%] | Content ([2]; month 3) [%] | Description ([2]; month 3) | Related substance ([2]; month 3) [%] | Content ([2]; month 6) [%] | Description ([2]; month 6) | Related substance ([2]; month 6) [%] | Content ([3]; month 0) [%] | Description ([3]; month 0) | Related substance ([3]; month 0) [%] | Content ([3]; month 3) [%] | also measured |
| --- | --- | --- | --- | --- | --- | --- | --- | --- | --- | --- | --- | --- | --- | --- | --- | --- | --- | --- | --- | --- | --- |
| CCC(C(C)OP(=O)([O-])[O-])n1ncn(-c2ccc(N3CCN(c4ccc(OCC5COC(Cn6cncn6)(c6ccc(F)cc6F)C5)cc4)CC3)cc2)c1=O.C[N+](C)(C)CCO.C[N+](C)(C)CCO.O.O.O.O.O (stereo not drawn) [Comparative Example 2, Posaconazole Phosphate Bicholinate Pentahydrate] | 11.81 | 99.87 | White | 0.13 | 99.86 | White | 0.14 | 99.85% | White | 0.16 | 99.79 | White | 0.21 | 99.64 | White | 0.36 | 99.87 | White | 0.13 | 99.86 | Description ([3]; month 3): White; Related substance ([3]; month 3): 0.14%; Content ([3]; month 6): 99.81%; Description ([3]; month 6): White; Related substance ([3]; month 6): 0.19%; Content ([3]; month 9): 99.75%; Description ([3]; month 9): White; Related substance ([3]; month 9): 0.25%; Content ([3]; month 12): 99.71%; Description ([3]; month 12): White; Related substance ([3]; month 12): 0.29%; Content ([3]; month 24): 99.18%; Description ([3]; month 24): White; Related substance ([3]; month 24): 0.82% |
| CC[C@@H]([C@H](C)OP(=O)([O-])[O-])n1ncn(-c2ccc(N3CCN(c4ccc(OC[C@@H]5CO[C@@](Cn6cncn6)(c6ccc(F)cc6F)C5)cc4)CC3)cc2)c1=O.C[N+](C)(C)CCO.C[N+](C)(C)CCO [Comparative Example 1, Posaconazole Phosphate Bicholinate] | 8.76 | 99.87 | White | 0.13 | 99.86 | White | 0.14 | 99.84% | White | 0.16 | 99.80 | White | 0.20 | 99.65 | White | 0.35 | 99.87 | White | 0.13 | 99.86 | Description ([3]; month 3): White; Related substance ([3]; month 3): 0.14%; Content ([3]; month 6): 99.81%; Description ([3]; month 6): White; Related substance ([3]; month 6): 0.19%; Content ([3]; month 9): 99.77%; Description ([3]; month 9): White; Related substance ([3]; month 9): 0.23%; Content ([3]; month 12): 99.61%; Description ([3]; month 12): White; Related substance ([3]; month 12): 0.31%; Content ([3]; month 24): 99.22%; Description ([3]; month 24): White; Related substance ([3]; month 24): 0.78% |
| CC[C@@H]([C@H](C)OP(=O)(O)O)n1ncn(-c2ccc(N3CCN(c4ccc(OC[C@@H]5CO[C@@](Cn6cncn6)(c6ccc(F)cc6F)C5)cc4)CC3)cc2)c1=O.CNC[C@H](O)[C@@H](O)[C@H](O)[C@H](O)CO [Comparative Example 4, Posaconazole Phosphate Monomeglumine Salt] | 0.88 | 99.87 | White | 0.13 | 99.73 | White | 0.27 | 99.62% | White | 0.38 | 99.50 | White | 0.50 | 99.36 | White | 0.64 | 99.87 | White | 0.13 | 99.81 | Conclusion (hygroscopicity) [1]: Slight hygroscopicity; Description ([3]; month 3): White; Related substance ([3]; month 3): 0.19%; Content ([3]; month 6): 99.69%; Description ([3]; month 6): White; Related substance ([3]; month 6): 0.31%; Content ([3]; month 9): 99.57%; Description ([3]; month 9): White; Related substance ([3]; month 9): 0.43%; Content ([3]; month 12): 99.50%; Description ([3]; month 12): White; Related substance ([3]; month 12): 0.50%; Content ([3]; month 24): 98.98%; Description ([3]; month 24): White; Related substance ([3]; month 24): 1.02% |
| CC[C@@H]([C@H](C)OP(=O)([O-])[O-])n1ncn(-c2ccc(N3CCN(c4ccc(OC[C@@H]5CO[C@@](Cn6cncn6)(c6ccc(F)cc6F)C5)cc4)CC3)cc2)c1=O.O.O.O.O.O.[Na+].[Na+] [Comparative Example 9, Posaconazole Phosphate Disodium Salt Pentahydrate] | 12.01 | 99.87 | White | 0.13 | 99.72 | White | 0.28 | 99.62% | White | 0.38 | 99.45 | White | 0.55 | 99.32 | White | 0.68 | 99.87 | White | 0.13 | 99.73 | Description ([3]; month 3): White; Related substance ([3]; month 3): 0.27%; Content ([3]; month 6): 99.68%; Description ([3]; month 6): White; Related substance ([3]; month 6): 0.32%; Content ([3]; month 9): 99.51%; Description ([3]; month 9): White; Related substance ([3]; month 9): 0.49%; Content ([3]; month 12): 99.41%; Description ([3]; month 12): White; Related substance ([3]; month 12): 0.59%; Content ([3]; month 24): 98.87%; Description ([3]; month 24): White; Related substance ([3]; month 24): 1.13% |
| Posaconazole Phosphate Monosodium Salt Trihydrate [Comparative Example 7] | 1.86 | 99.87 | White | 0.13 | 99.77 | White | 0.23 | 99.63% | White | 0.37 | 99.50 | White | 0.50 | 99.37 | White | 0.63 | 99.87 | White | 0.18 | 99.78 | Conclusion (hygroscopicity) [1]: Slight hygroscopicity; Description ([3]; month 3): White; Related substance ([3]; month 3): 0.22%; Content ([3]; month 6): 99.71%; Description ([3]; month 6): White; Related substance ([3]; month 6): 0.29%; Content ([3]; month 9): 99.61%; Description ([3]; month 9): White; Related substance ([3]; month 9): 0.39%; Content ([3]; month 12): 99.51%; Description ([3]; month 12): White; Related substance ([3]; month 12): 0.49%; Content ([3]; month 24): 98.98%; Description ([3]; month 24): White; Related substance ([3]; month 24): 1.02% |
| Posaconazole Phosphate Monosodium Salt [Comparative Example 8] | 1.92 | 99.87 | White | 0.13 | 99.71 | White | 0.29 | 99,63% | White | 0.37 | 99.47 | White | 0.53 | 99.32 | White | 0.68 | – | – | – | – | Conclusion (hygroscopicity) [1]: Slight hygroscopicity |
